Measurements as given in patent publication US6737383B1, “Herbicidal oxadiazolidines” (priority 1999, dated 2004).

Assays:
cocklebur = assay: Test B pre/postemergence cocklebur; type: in vivo, Xanthium strumarium
In short: (§1)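 Response is a visual 0-to-10 score relative to untreated plants, where 0 means no effect and 10 means complete control, taken twelve to sixteen days after application. Treatments went onto soil at planting and onto foliage of 1- to 4-leaf plants, using a surfactant-containing non-phytotoxic solvent.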

crabgrass = assay: Test B pre/postemergence crabgrass; type: in vivo, Digitaria sanguinalis
In short: as §1

rice = assay: Test B flood test rice; type: in vivo, Oryza sativa
In short: (§2)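 Each value is a visual injury score relative to controls, with 10 meaning complete control and 0 no effect. Evaluation took place twelve to sixteen days after the 2-leaf-stage plants were treated and kept in the greenhouse.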

soybean = assay: Test B pre/postemergence soybean; type: in vivo, Glycine max
In short: as §1

corn = assay: Test B pre/postemergence corn; type: in vivo, Zea mays
In short: as §1

velvetleaf = assay: Test B pre/postemergence velvetleaf; type: in vivo, Abutilon theophrasti
In short: as §1

blackgrass = assay: Test B pre/postemergence blackgrass; type: in vivo, Alopecurus myosuroides
In short: as §1

bamyardgrass = assay: Test B flood test barnyardgrass; type: in vivo, Echinochloa crus-galli
In short: as §2

duck salad = assay: Test B flood test duck salad; type: in vivo, Heteranthera limosa
In short: as §2

wheat = assay: Test B pre/postemergence wheat; type: in vivo, Triticum aestivum
In short: as §1

wild oat = assay: Test B pre/postemergence wild oat; type: in vivo, Avena fatua
In short: as §1

smallflower flatsedge = assay: Test B flood test smallflower flatsedge; type: in vivo, Cyperus difformis
In short: as §2

purple nutsedge = assay: Test B pre/postemergence purple nutsedge; type: in vivo, Cyperus rotundus
In short: as §1

rape = assay: Test B pre/postemergence rape; type: in vivo, Brassica napus
In short: as §1

sugar beet = assay: Test B pre/postemergence sugar beet; type: in vivo, Beta vulgaris
In short: as §1

surinam grass = assay: Test B pre/postemergence surinam grass; type: in vivo, Brachiaria decumbens
In short: as §1

bedstraw = assay: Test B pre/postemergence bedstraw; type: in vivo, Galium aparine
In short: as §1

[1] = Preemergence, Rate 62 g/ha, scale of 0 to 10 where 0 is no effect and 10 is complete control
[2] = Preemergence, Rate 250 g/ha, scale of 0 to 10 where 0 is no effect and 10 is complete control
[3] = Preemergence, Rate 500 g/ha, scale of 0 to 10 where 0 is no effect and 10 is complete control
[4] = Rate 62 g/ha, Postemergence, scale of 0 to 10 where 0 is no effect and 10 is complete control
[5] = Rate 125 g/ha, Postemergence, scale 0 to 10
[6] = Rate 125 g/ha, Preemergence, scale of 0 to 10 where 0 is no effect and 10 is complete control
[7] = Rate 500 g/ha, Postemergence, scale 0 to 10
[8] = Rate 62 g/ha, headed Pre-emergence (flood test species), scale 0 to 10 (0 no effect, 10 complete control)
[9] = Rate 125 g/ha, Pre-emergence, flood test species, scale 0 to 10 where 0 is no effect and 10 is complete control
[10] = Rate 250 g/ha, Pre-emergence, flood-test species, scale 0 to 10, 0 is no effect, 10 is complete control
[11] = Rate 500 g/ha, Pre-emergence, flood test species, scale 0 to 10 (0 no effect, 10 complete control)

SMILES: CC(C)N(C(=O)n1oc(=O)n(CCC(F)=C(F)F)c1=O)c1ccc(F)cc1 [Compound 218]
- Cocklebur plant response rating (cocklebur; [1]): 0
- Cocklebur plant response rating (cocklebur; [2]): 0
- Plant response rating, Cocklebur (cocklebur; [3]): 0
- Cocklebur plant response rating (cocklebur; [4]): 0
- Cocklebur plant response rating (cocklebur; [5]): 0
- Cocklebur plant response rating (cocklebur; [6]): 0
- Plant response rating (0 to 10; 0 is no effect, 10 is complete control), Cocklebur (cocklebur; Rate 250 g/ha, Postemergence): 3
- Cocklebur plant response rating (cocklebur; [7]): 4
- Crabgrass plant response rating (crabgrass; [1]): 4
- Crabgrass plant response rating (crabgrass; [2]): 6
- Plant response rating, Crabgrass (crabgrass; [3]): 7
- Crabgrass plant response rating (crabgrass; [4]): 1
- Crabgrass plant response rating (crabgrass; [5]): 4
- Crabgrass plant response rating (crabgrass; [6]): 4
- Plant response rating (0 to 10; 0 is no effect, 10 is complete control), Crabgrass (crabgrass; Rate 250 g/ha, Postemergence): 5
- Crabgrass plant response rating (crabgrass; [7]): 9
- Rice plant response rating (rice; [8]): 0
- Rice plant response rating (rice; [9]): 0
- Rice plant response rating (rice; [10]): 0
- Rice plant response rating (rice; [11]): 0
- Soybean plant response rating (soybean; [1]): 0
- Soybean plant response rating (soybean; [2]): 2
- Plant response rating, Soybean (soybean; [3]): 6
- Soybean plant response rating (soybean; [4]): 3
- Soybean plant response rating (soybean; [5]): 4
- Soybean plant response rating (soybean; [6]): 2
- Plant response rating (0 to 10; 0 is no effect, 10 is complete control), Soybean (soybean; Rate 250 g/ha, Postemergence): 6
- Soybean plant response rating (soybean; [7]): 7
- Corn plant response rating (corn; [1]): 0
- Corn plant response rating (corn; [2]): 0
- Plant response rating, Corn (corn; [3]): 6
- Corn plant response rating (corn; [4]): 0
- Corn plant response rating (corn; [5]): 0
- Corn plant response rating (corn; [6]): 0
- Plant response rating (0 to 10; 0 is no effect, 10 is complete control), Corn (corn; Rate 250 g/ha, Postemergence): 0
- Corn plant response rating (corn; [7]): 0
- Velvetleaf plant response rating (velvetleaf; [1]): 0
- Velvetleaf plant response rating (velvetleaf; [2]): 0
- Plant response rating, Velvetleaf (velvetleaf; [3]): 2
- Velvetleaf plant response rating (velvetleaf; [4]): 0
- Velvetleaf plant response rating (velvetleaf; [5]): 0
- Velvetleaf plant response rating (velvetleaf; [6]): 0
- Plant response rating (0 to 10; 0 is no effect, 10 is complete control), Velvetleaf (velvetleaf; Rate 250 g/ha, Postemergence): 2
- Blackgrass plant response rating (blackgrass; [1]): 8
- Blackgrass plant response rating (blackgrass; [2]): 9
- Plant response rating, Blackgrass (blackgrass; [3]): 10
- Blackgrass plant response rating (blackgrass; [4]): 5
- Blackgrass plant response rating (blackgrass; [5]): 5
- Blackgrass plant response rating (blackgrass; [6]): 9
- Plant response rating (0 to 10; 0 is no effect, 10 is complete control), Blackgrass (blackgrass; Rate 250 g/ha, Postemergence): 7
- Blackgrass plant response rating (blackgrass; [7]): 8
- Barnyardgrass plant response rating (bamyardgrass; [8]): 0
- Barnyardgrass plant response rating (bamyardgrass; [9]): 0
- Barnyardgrass plant response rating (bamyardgrass; [10]): 0
- Barnyardgrass plant response rating (bamyardgrass; [11]): 0
- Ducksalad plant response rating (duck salad; [8]): 0
- Ducksalad plant response rating (duck salad; [9]): 0
- Ducksalad plant response rating (duck salad; [10]): 0
- Ducksalad plant response rating (duck salad; [11]): 0
- Wheat plant response rating (wheat; [1]): 0
- Wheat plant response rating (wheat; [2]): 0
- Plant response rating, Wheat (wheat; [3]): 3
- Wheat plant response rating (wheat; [4]): 0
- Wheat plant response rating (wheat; [5]): 0
- Wheat plant response rating (wheat; [6]): 0
- Plant response rating (0 to 10; 0 is no effect, 10 is complete control), Wheat (wheat; Rate 250 g/ha, Postemergence): 0
- Wild oats plant response rating (wild oat; [1]): 5
- Wild oats plant response rating (wild oat; [2]): 7
- Plant response rating, Wild oats (wild oat; [3]): 9
- Wild oats plant response rating (wild oat; [4]): 0
- Wild oats plant response rating (wild oat; [5]): 0
- Wild oats plant response rating (wild oat; [6]): 6
- Plant response rating (0 to 10; 0 is no effect, 10 is complete control), Wild oats (wild oat; Rate 250 g/ha, Postemergence): 1
- S. Flatsedge plant response rating (smallflower flatsedge; [8]): 0
- S. Flatsedge plant response rating (smallflower flatsedge; [9]): 0
- S. Flatsedge plant response rating (smallflower flatsedge; [10]): 0
- S. Flatsedge plant response rating (smallflower flatsedge; [11]): 0
- Plant response rating, Nutsedge (purple nutsedge; [3]): 0
- Nutsedge plant response rating (purple nutsedge; [4]): 0
- Nutsedge plant response rating (purple nutsedge; [5]): 0
- Plant response rating (0 to 10; 0 is no effect, 10 is complete control), Nutsedge (purple nutsedge; Rate 250 g/ha, Postemergence): 0
- Nutsedge plant response rating (purple nutsedge; [7]): 0
- Rape plant response rating (rape; [1]): 0
- Rape plant response rating (rape; [2]): 0
- Plant response rating, Rape (rape; [3]): 2
- Rape plant response rating (rape; [4]): 0
- Rape plant response rating (rape; [5]): 1
- Rape plant response rating (rape; [6]): 0
- Plant response rating (0 to 10; 0 is no effect, 10 is complete control), Rape (rape; Rate 250 g/ha, Postemergence): 6
- Rape plant response rating (rape; [7]): 7
- Sugarbeets plant response rating (sugar beet; [1]): 0
- Sugarbeets plant response rating (sugar beet; [2]): 6
- Plant response rating, Sugarbeets (sugar beet; [3]): 7
- Sugarbeets plant response rating (sugar beet; [4]): 2
- Sugarbeets plant response rating (sugar beet; [5]): 2
- Sugarbeets plant response rating (sugar beet; [6]): 1
- Plant response rating (0 to 10; 0 is no effect, 10 is complete control), Sugarbeets (sugar beet; Rate 250 g/ha, Postemergence): 2
- Sugarbeets plant response rating (sugar beet; [7]): 4
- B. signalgrass plant response rating (surinam grass; [1]): 0
- B. signalgrass plant response rating (surinam grass; Preemergence, Rate 250 g/ha, scale 0 to 10, 0 is no effect, 10 is complete control): 6
- Plant response rating, B. signalgrass (surinam grass; [3]): 7
- B. signalgrass plant response rating (surinam grass; [4]): 0
- B. signalgrass plant response rating (surinam grass; Rate 125 g/ha, Postemergence, scale 0 (no effect) to 10 (complete control)): 0
- B. signalgrass plant response rating (surinam grass; [6]): 4
- Plant response rating (0 to 10; 0 is no effect, 10 is complete control), B. signalgrass (surinam grass; Rate 250 g/ha, Postemergence): 3
- B. signalgrass plant response rating (surinam grass; Rate 500 g/ha, Postemergence, scale 0 to 10, 0 no effect, 10 complete control): 7
- Bedstraw plant response rating (bedstraw; [1]): 0
- Bedstraw plant response rating (bedstraw; [2]): 0
- Plant response rating, Bedstraw (bedstraw; [3]): 3
- Bedstraw plant response rating (bedstraw; [4]): 6
- Bedstraw plant response rating (bedstraw; [5]): 8
- Bedstraw plant response rating (bedstraw; [6]): 0
- Bedstraw plant response rating (bedstraw; [7]): 8
